Reference: PubChem BioAssay (NCI)
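GI50 is the concentration that inhibits growth by half. At the TGI there is no net growth.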

What was measured:
Experiment in all cases: NCI anticancer screen, dose series, 384-well format
[1] = system: ACHN renal
[2] = system: PC-3 prostate
[3] = system: OVCAR-5 ovarian
[4] = system: SF-539 CNS
[5] = system: NCI/ADR-RES ovarian
[6] = system: RXF 393 renal
[7] = system: HS 578T breast
[8] = system: SN12C renal
[9] = system: MALME-3M melanoma
[10] = system: HCT-15 colon
[11] = system: A549 NSCLC
[12] = system: UACC-257 melanoma
[13] = system: UO-31 renal

**Q.** `CCNC(=O)c1cc2c(-c3cc(C(C)(C)O)ccc3Oc3c(C)cc(F)cc3C)cn(C)c(=O)c2[nH]1` was tested. Which GI50 [1] did it give?
**A.** The GI50 was 3.23 µM.

**Q.** And the TGI [1]?
**A.** The TGI was 15.1 µM.

**Q.** What about the GI50 [2] of the same molecule?
**A.** The GI50 was 1.41 µM.

**Q.** What about the TGI [2] of the same molecule?
**A.** Its TGI is 12.6 µM.

**Q.** What about the GI50 [3] of the same molecule?
**A.** The GI50 was 1.03 µM.

**Q.** What about the TGI [3] of the same molecule?
**A.** Its TGI is 9.89 µM.

**Q.** And the GI50 [4]?
**A.** Its GI50 is 1.53 µM.

**Q.** What about the TGI [4] of the same molecule?
**A.** The TGI was 10.1 µM.

**Q.** What about the GI50 [5] of the same molecule?
**A.** Its GI50 is 12.3 µM.

**Q.** And the TGI [5]?
**A.** The TGI was 26.1 µM.

**Q.** And the GI50 [6]?
**A.** Its GI50 is 1.22 µM.

**Q.** What about the TGI [6] of the same molecule?
**A.** The TGI was 3.55 µM.

**Q.** What about the GI50 [7] of the same molecule?
**A.** The GI50 was 0.125 µM.

**Q.** And the TGI [7]?
**A.** Its TGI is 2.02 µM.

**Q.** What about the GI50 [8] of the same molecule?
**A.** Its GI50 is 3.23 µM.

**Q.** What about the TGI [8] of the same molecule?
**A.** The TGI was 13.6 µM.

**Q.** What about the GI50 [9] of the same molecule?
**A.** Its GI50 is 1.15 µM.

**Q.** And the TGI [9]?
**A.** Its TGI is 3.36 µM.

**Q.** And the GI50 [10]?
**A.** Its GI50 is 1.6 µM.

**Q.** What about the TGI [10] of the same molecule?
**A.** Its TGI is 5.23 µM.

**Q.** What about the GI50 [11] of the same molecule?
**A.** Its GI50 is 1.51 µM.

**Q.** And the TGI [11]?
**A.** Its TGI is 12 µM.

**Q.** What about the GI50 [12] of the same molecule?
**A.** The GI50 was 0.748 µM.

**Q.** What about the TGI [12] of the same molecule?
**A.** Its TGI is 10.4 µM.

**Q.** What about the GI50 [13] of the same molecule?
**A.** Its GI50 is 2.23 µM.

**Q.** What about the TGI [13] of the same molecule?
**A.** The TGI was 13 µM.
